Laboratory results as given in paper doi:10.1101/2025.08.17.670703v1 (biorxiv, 2025).

Columns and labels:
[1] = target: T1, HEV-PLpro (HEV papain-like cysteine protease) (Hepatitis E virus (strain Pakistan), UniProt P33424); assay: fluorogenic protease assay; type: biochemical
T1 sequence (P33424 432-592): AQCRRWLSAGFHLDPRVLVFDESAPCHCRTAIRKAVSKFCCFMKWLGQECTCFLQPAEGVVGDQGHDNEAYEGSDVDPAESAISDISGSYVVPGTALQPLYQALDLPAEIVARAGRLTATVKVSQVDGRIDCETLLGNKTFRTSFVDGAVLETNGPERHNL

[2] = target: T1, HEV-PLpro (HEV papain-like cysteine protease); assay: fluorogenic protease assay, secondary plot of Km' vs [I]; type: biochemical

NC(=O)c1ncn([C@@H]2O[C@H](CO)[C@@H](O)[C@H]2O)n1 [RBV, ribavirin]
IC50 [1]: 78.3 µM | Ki [2]: 47.6 µM
